This data set can be described thus: tolerability in xenograft studies (body weight, deaths, MTD). How it is done:
For the first in vivo experiment, tumor fragments (5×5 mm) from untreated donor animals were implanted subcutaneously into both flanks of recipient mice. Treatment was initiated 6 days after transplantation (=day 0, median tumor volume of ˜70 mm^3). Animals were randomized into groups following Lindner's randomization tables and treated by oral gavage with 5 mg/kg/d RHPS4 or vehicle (phosphate buffered saline) respectively (n=5-8 animals per group). […] Drug administration was repeated twice weekly for 8 times (Q3dx8) after randomization. Tumor growth was followed twice weekly by serial caliper measurement, body weights were recorded, and tumor volumes were calculated using the standard formula (length×width^2)/2, where length is the largest dimension and width the smallest dimension perpendicular to the length (Alley et al., 2004; Geran et al., 1972). The median relative tumor volume was plotted against time. Relative tumor volumes were calculated for each single tumor by dividing the tumor volume on day X by that on day 0 (time of randomization). Growth curves were analyzed in terms of tumor inhibition (treated/control, T/C, calculated as median tumor weight of treated divided by median tumor weight of control animals times 100). Statistical data analysis was done using non-parametrical Wilcoxon Mann-Whitney statistics. Median relative tumor volumes of each treatment group were compared with those of the vehicle control groups. P values less than 0.05 were considered statistically significant. SPSS 2000, SYSTAT version 10 software was used.
To conduct combination treatment with Paclitaxel, after 4 serial propagations of RHPS4 treated tumor tissue in nude mice (FIG. 1), RHPS4 was combined with Paclitaxel. Single agent Paclitaxel was given at 20 mg/kg i.v. on days 1 and 15. In combination with RHPS4 (given at 5 mg/kg p.o. twice weekly), only a single dose of Paclitaxel (20 mg/kg i.v.) was administered on day 1. Tumor growth parameters and body weight were assessed as described above.

For the compound `COS(=O)(=O)[O-].Cc1cc2c3c([n+](C)c4ccc(F)cc4c3c1)-c1cc(F)ccc1N2C` [RHPS4, 3,11-difluoro-6,8,13-trimethyl-8H-quino[4,3,2-kl]acridinium methosulfate], the “Deaths [n/n], drug related death per mice per group” value (from here on “Deaths [n/n] … per group”) (Passage #1) was 0/5; the “Deaths [n/n] … per group” value (Passage #2) is reported as 0/6; the “Deaths [n/n] … per group” value (Passage #3) was 0/8; the “Deaths [n/n] … per group” value (Passage #4) is on record as 0/5. The tolerability entry (mouse, in vivo) is listed as “well tolerated”. The “1/2 maximal tolerated dose” value (oral, mouse strain used) came out at 5 mg/kg/day.

The values are drawn from patent US20080279961A1, “TELOMERE TARGETING AGENTS AS STEM CELLS DIRECTED TREATMENTS” (priority 2007, published 2008).
